{"source": "ChEMBL document CHEMBL1201862", "about": "“PubChem BioAssay data set” (2004)", "key": {"[1]": {"biological_target": "T1, E3 ubiquitin-protein ligase XIAP (Homo sapiens, UniProt P98170)", "T1 sequence (P98170 whole entry)": "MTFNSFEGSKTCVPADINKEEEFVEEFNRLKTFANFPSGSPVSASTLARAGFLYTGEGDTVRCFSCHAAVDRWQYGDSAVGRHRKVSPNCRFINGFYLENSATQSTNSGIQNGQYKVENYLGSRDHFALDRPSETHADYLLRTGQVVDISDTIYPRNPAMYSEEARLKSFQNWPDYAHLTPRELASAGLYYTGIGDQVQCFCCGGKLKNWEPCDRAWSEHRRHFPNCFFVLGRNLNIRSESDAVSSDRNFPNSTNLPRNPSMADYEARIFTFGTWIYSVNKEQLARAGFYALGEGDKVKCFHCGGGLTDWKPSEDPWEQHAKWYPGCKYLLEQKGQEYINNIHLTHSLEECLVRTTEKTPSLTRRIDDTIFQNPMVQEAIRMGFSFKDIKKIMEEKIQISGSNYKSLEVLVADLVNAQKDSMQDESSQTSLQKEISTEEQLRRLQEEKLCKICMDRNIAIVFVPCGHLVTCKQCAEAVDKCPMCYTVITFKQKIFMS", "experiment": "XIAP antagonists, biochemical, IAP family, fluorescence polarization (AID 1018)", "assay_type": "functional"}, "[2]": {"biological_target": "T1, E3 ubiquitin-protein ligase XIAP", "experiment": "Counter Screen using XIAP-Bir3 for Chemical Antagonists of Bir1/2 domains of IAP-family anti-apoptotic proteins. [Related pubchem assays (depositor defined):AID1018, AID1449, AID1514, AID1638, AID1749, AID1750, AID488957, AID488963]"}, "[3]": {"biological_target": "G-protein coupled receptor 55 (Homo sapiens, UniProt Q9Y2T6)", "sequence (Q9Y2T6 whole entry)": "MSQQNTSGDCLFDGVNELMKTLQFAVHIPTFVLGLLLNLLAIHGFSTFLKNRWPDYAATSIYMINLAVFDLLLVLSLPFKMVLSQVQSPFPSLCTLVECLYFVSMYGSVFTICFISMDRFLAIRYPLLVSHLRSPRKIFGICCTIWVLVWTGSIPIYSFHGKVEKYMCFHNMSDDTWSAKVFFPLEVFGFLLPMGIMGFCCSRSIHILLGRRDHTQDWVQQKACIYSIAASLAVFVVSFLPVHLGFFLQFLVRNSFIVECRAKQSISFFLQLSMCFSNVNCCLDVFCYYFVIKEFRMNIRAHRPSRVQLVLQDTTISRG", "experiment": "GPR55 antagonists blocking LPI-driven arrestin recruitment, primary screen, imaging, U2OS, beta-arrestin-GFP, LPI agonist (AID 2013);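 further: antagonist potency measured as reduced agonist-driven arrestin aggregation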", "assay_type": "functional"}, "Streptococcus": {"tested_on": "Streptococcus", "experiment": "Group A Streptococcus viability loss, dose response, counter-screen for streptokinase expression inhibitor project, luminescence, BacTiterGlo (AID 1915);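 further: potency for reduction of bacterial viability or growth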", "assay_type": "functional, organism-based"}, "[4]": {"experiment": "Vero E6 cell cytotoxicity, dose response, cytotoxicity control for non-replicating M. tuberculosis project, secondary assay (AID 492998)", "assay_type": "functional, VeroE6", "details": "Vero C1008"}, "[5]": {"experiment": "microbe, parasite or virus in culture", "assay_type": "functional", "details": "Mycobacterium tuberculosis"}, "cells": {"experiment": "cells", "assay_type": "functional"}, "[6]": {"tested_on": "Streptococcus sp. 'group A'", "experiment": "growth inhibition of control SK(-) GAS strain, dose response, counter-screen for streptokinase expression inhibitor project, luminescence, kanamycin, BacTiterGlo, confirmation (AID 1900)", "assay_type": "functional, organism-based"}, "[7]": {"experiment": "THP-1 cell cytotoxicity, dose response, cytotoxicity control for non-replicating M. tuberculosis project (AID 489025)", "assay_type": "functional"}, "Nonstructural protein 1": {"biological_target": "Nonstructural protein 1 (Influenza A virus, UniProt Q194T2)", "sequence (Q194T2 whole entry)": "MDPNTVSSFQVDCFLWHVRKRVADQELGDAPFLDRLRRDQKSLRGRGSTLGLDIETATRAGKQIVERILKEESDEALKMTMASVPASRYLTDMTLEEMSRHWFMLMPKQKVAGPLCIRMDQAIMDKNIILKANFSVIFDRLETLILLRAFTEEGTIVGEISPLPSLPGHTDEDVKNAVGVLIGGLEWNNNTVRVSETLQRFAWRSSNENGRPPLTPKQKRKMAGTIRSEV", "assay_type": "functional, Influenza A virus (A/California/07/2009(H1N1))"}, "[8]": {"experiment": "HepG2 cell cytotoxicity, dose response, cytotoxicity control for non-replicating M. tuberculosis project (AID 489018)", "assay_type": "functional", "details": "Mycobacterium tuberculosis"}, "[9]": {"biological_target": "Peroxisome proliferator-activated receptor gamma/Nuclear receptor coactivator 3 (Homo sapiens, UniProt P37231)", "experiment": "TR-FRET dose response biochemical High Throughput Screening assay for agonists of the steroid receptor coactivator 3 (SRC-3) recruitment by the peroxisome proliferator-activated receptor gamma (PPAR gamma): non-selective agonists. [Related pubchem assays: 1301 (Confirmation screen.), 1048 (Primary screen.)]", "assay_type": "functional"}, "Cytochrome P450 2D6": {"biological_target": "Cytochrome P450 2D6 (Homo sapiens, UniProt P10635)", "sequence (P10635 whole entry)": "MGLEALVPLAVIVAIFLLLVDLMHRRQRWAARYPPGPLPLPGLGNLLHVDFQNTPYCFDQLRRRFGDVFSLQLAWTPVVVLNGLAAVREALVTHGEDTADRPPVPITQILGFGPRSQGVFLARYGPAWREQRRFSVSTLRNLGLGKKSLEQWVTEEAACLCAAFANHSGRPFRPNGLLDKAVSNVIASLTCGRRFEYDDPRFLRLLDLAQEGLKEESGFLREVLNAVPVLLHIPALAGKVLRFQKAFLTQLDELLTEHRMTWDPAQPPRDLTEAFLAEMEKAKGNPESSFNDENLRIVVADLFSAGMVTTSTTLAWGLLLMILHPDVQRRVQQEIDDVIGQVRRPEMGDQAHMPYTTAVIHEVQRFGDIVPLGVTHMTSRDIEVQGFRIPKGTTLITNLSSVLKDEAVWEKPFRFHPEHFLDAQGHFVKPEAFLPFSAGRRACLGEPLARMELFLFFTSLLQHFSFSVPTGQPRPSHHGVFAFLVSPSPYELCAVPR"}, "[10]": {"biological_target": "Peroxisome proliferator-activated receptor gamma/Nuclear receptor coactivator 2 (Homo sapiens, UniProt P37231)", "sequence (P37231 whole entry)": "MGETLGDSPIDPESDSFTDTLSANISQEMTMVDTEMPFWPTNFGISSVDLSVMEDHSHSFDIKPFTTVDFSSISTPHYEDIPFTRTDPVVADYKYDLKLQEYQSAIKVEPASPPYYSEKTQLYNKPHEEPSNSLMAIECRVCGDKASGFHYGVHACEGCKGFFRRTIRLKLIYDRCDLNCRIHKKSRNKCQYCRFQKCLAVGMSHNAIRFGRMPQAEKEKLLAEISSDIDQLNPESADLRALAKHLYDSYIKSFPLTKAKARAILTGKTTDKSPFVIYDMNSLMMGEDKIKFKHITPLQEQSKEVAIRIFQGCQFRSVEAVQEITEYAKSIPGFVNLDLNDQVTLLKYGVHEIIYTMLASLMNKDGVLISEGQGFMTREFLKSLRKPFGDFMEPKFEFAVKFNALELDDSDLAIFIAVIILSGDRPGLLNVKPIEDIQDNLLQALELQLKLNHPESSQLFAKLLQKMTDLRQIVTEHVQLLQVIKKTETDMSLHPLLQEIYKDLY", "sequence (Q15596 whole entry, further chain)": "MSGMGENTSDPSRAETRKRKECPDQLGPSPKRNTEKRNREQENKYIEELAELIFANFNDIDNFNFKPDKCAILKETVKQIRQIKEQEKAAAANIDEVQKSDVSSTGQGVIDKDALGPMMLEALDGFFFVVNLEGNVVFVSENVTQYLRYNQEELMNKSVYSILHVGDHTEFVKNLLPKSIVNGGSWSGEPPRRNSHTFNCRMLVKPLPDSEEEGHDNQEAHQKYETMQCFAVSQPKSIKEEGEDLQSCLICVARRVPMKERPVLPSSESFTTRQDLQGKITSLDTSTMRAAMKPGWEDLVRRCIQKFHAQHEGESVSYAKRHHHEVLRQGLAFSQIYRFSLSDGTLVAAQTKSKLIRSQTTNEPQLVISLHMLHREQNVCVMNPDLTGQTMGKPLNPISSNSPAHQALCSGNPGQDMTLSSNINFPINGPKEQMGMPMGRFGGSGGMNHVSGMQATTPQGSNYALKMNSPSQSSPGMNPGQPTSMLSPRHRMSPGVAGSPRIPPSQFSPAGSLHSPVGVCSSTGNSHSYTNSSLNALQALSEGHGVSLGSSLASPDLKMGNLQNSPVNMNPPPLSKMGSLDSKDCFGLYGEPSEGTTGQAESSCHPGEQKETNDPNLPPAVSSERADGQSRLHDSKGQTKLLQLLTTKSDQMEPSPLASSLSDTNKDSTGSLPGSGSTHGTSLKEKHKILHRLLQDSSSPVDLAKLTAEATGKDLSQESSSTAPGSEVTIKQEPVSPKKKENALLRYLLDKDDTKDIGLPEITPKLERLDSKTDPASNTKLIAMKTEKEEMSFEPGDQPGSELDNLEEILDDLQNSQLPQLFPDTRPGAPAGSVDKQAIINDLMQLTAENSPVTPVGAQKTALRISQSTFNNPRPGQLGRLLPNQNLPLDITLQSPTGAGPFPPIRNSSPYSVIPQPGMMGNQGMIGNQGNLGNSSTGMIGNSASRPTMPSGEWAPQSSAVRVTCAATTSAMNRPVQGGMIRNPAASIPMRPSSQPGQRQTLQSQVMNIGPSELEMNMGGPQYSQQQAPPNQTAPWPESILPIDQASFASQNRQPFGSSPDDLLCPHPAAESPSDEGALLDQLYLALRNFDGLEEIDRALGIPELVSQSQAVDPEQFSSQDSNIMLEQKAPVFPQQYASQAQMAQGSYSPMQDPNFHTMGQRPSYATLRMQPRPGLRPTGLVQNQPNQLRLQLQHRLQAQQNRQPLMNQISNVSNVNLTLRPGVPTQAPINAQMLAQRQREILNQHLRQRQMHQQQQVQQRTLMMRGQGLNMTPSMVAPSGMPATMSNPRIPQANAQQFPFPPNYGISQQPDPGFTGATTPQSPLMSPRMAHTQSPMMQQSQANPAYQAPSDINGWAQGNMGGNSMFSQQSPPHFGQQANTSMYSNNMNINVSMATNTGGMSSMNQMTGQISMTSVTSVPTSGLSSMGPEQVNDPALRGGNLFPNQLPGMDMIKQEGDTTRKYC", "experiment": "(§1) TR-FRET dose response biochemical High Throughput Screening assay for agonists of the steroid receptor coactivator 2 (SRC-2) recruitment by the peroxisome proliferator-activated receptor gamma (PPAR gamma): non-selective agonists. [Related pubchem assays: 1297, 1032 ]", "assay_type": "functional"}, "[11]": {"biological_target": "Peroxisome proliferator-activated receptor gamma/Nuclear receptor coactivator 1 (Homo sapiens, UniProt P37231)", "experiment": "as §1, with “1 (SRC-1)” for “2 (SRC-2)”, “assays (depositor defined):AID1300, AID1808, AID504735, AID631]” for “assays: 1297, 1032 ]”", "assay_type": "protein assay"}, "[12]": {"biological_target": "Sphingosine 1-phosphate receptor 1 (Homo sapiens, UniProt P21453)", "experiment": "Fluorescence-based counterscreen assay for S1P4 agonists: Cell-based dose response high throughput screening assay to identify agonists of the Sphingosine 1-Phosphate Receptor 1 (S1P1). [Related pubchem assays (depositor defined):AID1509, AID1523, AID1801, AID463107, AID463118, AID463119, AID463122, AID463123, AID463129, AID463225, AID504400, AID504460]", "assay_type": "functional"}, "[13]": {"biological_target": "Sphingosine 1-phosphate receptor 4 (Homo sapiens, UniProt O95977)", "sequence (O95977 whole entry)": "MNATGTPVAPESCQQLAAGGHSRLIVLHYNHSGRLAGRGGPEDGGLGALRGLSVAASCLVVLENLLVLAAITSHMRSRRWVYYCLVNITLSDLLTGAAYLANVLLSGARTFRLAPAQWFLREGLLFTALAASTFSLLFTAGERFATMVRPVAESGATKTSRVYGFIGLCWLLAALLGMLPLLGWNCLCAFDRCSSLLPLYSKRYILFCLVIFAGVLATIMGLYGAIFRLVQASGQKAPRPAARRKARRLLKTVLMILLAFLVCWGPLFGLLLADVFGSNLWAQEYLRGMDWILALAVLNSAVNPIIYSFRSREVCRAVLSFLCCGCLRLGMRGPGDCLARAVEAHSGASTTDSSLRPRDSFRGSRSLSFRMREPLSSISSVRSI", "experiment": "Fluorescence dose response cell-based high throughput screening assay for agonists of the Sphingosine 1-Phosphate Receptor 4 (S1P4). [Related pubchem assays: 1509 (Primary screen.), 1523 (Confirmation screen in triplicates.)]", "assay_type": "functional"}, "[14]": {"biological_target": "T2, Delta-type opioid receptor (Homo sapiens, UniProt P41143)", "T2 sequence (P41143 whole entry)": "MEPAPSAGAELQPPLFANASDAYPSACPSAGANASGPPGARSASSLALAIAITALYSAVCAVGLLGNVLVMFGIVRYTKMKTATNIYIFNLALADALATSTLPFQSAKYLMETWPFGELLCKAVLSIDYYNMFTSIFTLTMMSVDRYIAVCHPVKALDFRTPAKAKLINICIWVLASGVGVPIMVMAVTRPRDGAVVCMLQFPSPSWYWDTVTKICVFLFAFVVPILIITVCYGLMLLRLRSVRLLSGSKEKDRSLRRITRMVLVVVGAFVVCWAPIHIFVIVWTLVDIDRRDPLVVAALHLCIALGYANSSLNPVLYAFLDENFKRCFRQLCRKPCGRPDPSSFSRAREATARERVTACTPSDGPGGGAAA", "experiment": "HTS Image-Based Screen for Agonists of the DOR Receptor. [Related pubchem assays (depositor defined):AID1777, AID1786, AID2133]", "assay_type": "functional"}, "[15]": {"biological_target": "T2, Delta-type opioid receptor", "experiment": "HTS Image-Based Screen for Antagonists of the DOR Receptor. [Related pubchem assays (depositor defined):AID1777, AID1785, AID1786, AID2133]", "assay_type": "functional"}, "Beta-galactosidase": {"biological_target": "Beta-galactosidase (Escherichia coli, UniProt Q8VNN2)", "assay_type": "functional"}, "Mu-type opioid receptor": {"biological_target": "Mu-type opioid receptor (Homo sapiens, UniProt P35372)", "experiment": "HTS Image-Based Screen for Agonists of the MOR Receptor. [Related pubchem assays (depositor defined):AID1777, AID1785, AID1786, AID2133]", "assay_type": "functional"}, "[16]": {"biological_target": "T3, Kappa-type opioid receptor (Homo sapiens, UniProt P41145)", "T3 sequence (P41145 whole entry)": "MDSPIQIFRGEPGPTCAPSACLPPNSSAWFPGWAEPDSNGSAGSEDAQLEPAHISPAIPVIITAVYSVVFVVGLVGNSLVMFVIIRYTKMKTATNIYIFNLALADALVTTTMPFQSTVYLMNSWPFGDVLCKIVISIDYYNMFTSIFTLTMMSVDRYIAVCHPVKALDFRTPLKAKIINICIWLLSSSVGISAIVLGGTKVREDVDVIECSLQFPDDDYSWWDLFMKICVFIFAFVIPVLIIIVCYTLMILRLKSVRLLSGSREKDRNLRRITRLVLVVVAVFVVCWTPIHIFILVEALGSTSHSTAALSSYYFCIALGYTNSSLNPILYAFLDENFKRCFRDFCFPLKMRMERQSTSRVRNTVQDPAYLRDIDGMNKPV", "assay_type": "functional"}, "[17]": {"biological_target": "T3, Kappa-type opioid receptor", "assay_type": "functional", "remark": "listed apart in the source"}}, "note": "pIC50: −log10 of the molar value. The source made the active and inactive calls.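 Wherever AC50 is given: CYP2D6 member of a cytochrome P450 panel assay.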"}
{"smiles": "CC1(C)CC(=O)N(CC(=O)O)c2ccccc2S1(=O)=O", "values": [{"measurement": "IC50", "setting": "[1]", "value": "> 100 µM (not active)"}, {"measurement": "IC50", "setting": "[2]", "value": "> 100 µM (inactive)"}]}
{"smiles": "CCOc1ccc(NC(=O)c2ccccc2OCC(=O)c2ccccc2)cc1", "values": [{"measurement": "IC50", "setting": "[3]", "value": "1.74 µM (active)"}]}
{"smiles": "Cc1ccc(N(C)C(=O)c2cc(S(=O)(=O)N3CCc4ccccc43)cn2C)cc1", "values": [{"measurement": "IC50", "setting": "[3]", "value": "0.769 µM (active)"}]}
{"smiles": "COCc1cc(O)nc(Nc2nc3ccccc3o2)n1", "values": [{"measurement": "EC50", "setting": "Streptococcus", "value": "9.09 µM (active)"}, {"measurement": "CC50", "setting": "[4]", "value": "7.52 µM (active)"}, {"measurement": "CC50", "setting": "[5]", "value": "16 µM (active)"}, {"measurement": "IC50", "setting": "cells", "value": "1.85 µM (active)"}, {"measurement": "EC50", "setting": "[6]", "value": "2.21 µM (active)"}, {"measurement": "CC50", "setting": "[7]", "value": "19.4 µM (active)"}, {"measurement": "IC50", "setting": "Nonstructural protein 1", "value": "10.8 µM (active)"}, {"measurement": "CC50", "setting": "[8]", "value": "16.8 µM (active)"}]}
{"smiles": "O=C1C=C(c2cccs2)CC(c2cccs2)C1n1cnc([N+](=O)[O-])c1", "note": "(centres undefined)", "values": [{"measurement": "EC50", "setting": "[9]", "value": "> 79.4 µM (not active)"}, {"measurement": "AC50", "setting": "Cytochrome P450 2D6", "value": "15.8 µM (inconclusive)"}, {"measurement": "EC50", "setting": "[10]", "value": "20.7 µM (not active)"}, {"measurement": "EC50", "setting": "[11]", "value": "18.5 µM (inactive)"}]}
{"smiles": "Cn1c(SCC(=O)c2ccc3c(c2)OCO3)nnc1C1COc2ccccc2O1", "note": "(centres undefined)", "values": [{"measurement": "EC50", "setting": "[12]", "value": "> 49.8 µM (inactive)"}, {"measurement": "EC50", "setting": "[13]", "value": "> 49.8 µM (not active)"}]}
{"smiles": "Cc1cccc(C(=O)NC2CC3CCCC(C2)N3Cc2ccccc2)c1", "note": "(centres undefined)", "values": [{"measurement": "EC50", "setting": "[14]", "value": "> 32 µM (inactive)"}, {"measurement": "IC50", "setting": "[15]", "value": "> 32 µM (inactive)"}, {"measurement": "EC50", "setting": "Beta-galactosidase", "value": "> 31.5 µM (inactive)"}, {"measurement": "EC50", "setting": "Mu-type opioid receptor", "value": "> 32 µM (inactive)"}, {"measurement": "IC50", "setting": "[16]", "value": "15.7 µM (active)"}, {"measurement": "pIC50", "setting": "[17]", "value": 4.70}]}
